According to patent US9618524B2, “Method, composition, isolation and identification of a plaque particle and related biomarker” (Plaxgen Inc., priority 2012, dated 2017):

How the values were obtained:
Experiment in all cases: Mass spectroscopy proteomics, semi-quantitative binding affinity of serum proteins (plaqueproteome, Table 2)
Conditions in all cases: higher number = stronger affinity
Tau plaque particles = test system: Tau plaque particles; parameters: species or system human
Description: For Tau-74 (74-102) (Exon 3/Insert 2 domain) preparation, 1 mg of Tau-74 was suspended in 1 mL of PBS and the sample was incubated at 37° C. for 2 hrs. Similarly for preparing Tau-275 (275-305) (Repeat 2 domain) 1 mg of the peptide was suspended in 1 mL of PBS and the sample was incubated at 37° C. for 2 hrs. After incubation, all the samples were centrifuged for 5 min. at 5000 rpm to remove precipitate, if any, and the supernatant containing oligomers/aggregates were used for in vitro amyloid plaque particles formation assay. For detecting Tau plaque particles, Thioflavin S (Ex/Em=430 nm/550 nm) amyloid binding fluorescent dye (10 μg) was used in the assay.
Next, to isolate Tau plaque particles, as performed for Abeta-42 and Abeta-28 plaque particles isolation, diluted serum samples were used for incubation separately with Tau-45, Tau-74 and Tau-275 oligomers/aggregates. Each assay was performed in 1 mL reaction (800 μL of 50% plasma or serum) and 200 μL (30 μg) of each Tau aggregates and the mixtures were incubated at 37° C. for 1 hr. To the each mixture Thioflavin S dye (120 μg) was added and the sample was incubated for additional 30 min at 37° C. After the incubation, each sample was directly used for sample acquisition using flow cytometer (FACS ARIA II, BD Biosciences, San Jose, Calif.). After initial detection of Tau plaque particles, gates were drawn in the acquisition blot to separately sort and isolate fluorescently labeled Tau plaque particles.
(§1) For preparing trypsin digested peptide sequences, the isolated plaque particles were centrifuged at 10000 rpm for 5 min and the pellet containing plaque particles was resuspended in 100 μl PBS buffer. Stock solutions of digestion buffer (Ammonium Biocarbonate 50 mM), reducing buffer (DDT 100 mM) and alkylation buffer (lodoaceamide 100 mM) were prepared and stored at −20° C. for up to two months. For trypsin digestion, 100 μl of each plaque particles (2000 of Abeta-42, cholesterol, Tau and alpha-synuclein) were precipitated using cold acetone −80° C. by adding 4X's the volume. The samples were placed on dry ice for 10 min with intermittent vortex. Next, the samples were centrifuged at 4° C. at 10000 G for 10 min. Top layer of acetone was carefully removed from the tube with care not to disturb the plaque particles pellet. The samples were speed-vac for 10 min to ensure all acetone has been boiled away. The plaque particles pellet were reconstituted with 15 μl 8M Urea 100 mM Ammonium bicarbonate stock and 20 μl protease max solution. The protease max solution (Promega, Madison, Wis.) was prepared from stock by adding 60 μl 50 mM Ammonium bicarbonate and used for 3 solution digests (20 μl each). […] The tubes were incubated at 55° C. for 30 minutes. The tubes were then removed and brought to the room temperature followed by addition of 3.2 μl of 1M acrylamide and incubated at room temperature for 30 minutes. To the sample, 63 μL of 50 mM Ammonium bicarbonate was added for a final volume of 98 μl and 2 μl of trypsin (10 μg, Trypsin/Lys C Mix). After mixing the solution with pipet the samples were incubated at 37° C. overnight. After the overnight digest, the tryptic digest were quenched and acidified by adding 10 μl of 50% formic acid/water stock dilution. The samples were centrifuged at 10000 G for 2 minutes and purified using stage tip and used for MS/Mass analysis.
(§2) All MS/MS samples were analyzed using Sequest (Thermo Fisher Scientific, San Jose, Calif., USA; version 1.0). Sequest was set up to search the SUMS_uniprot_Human database (35847 entries) assuming the digestion enzyme strict trypsin. Sequest was searched with a fragment ion mass tolerance of 1.00 Da and a parent ion tolerance of 20 PPM. Propionamide of cysteine was specified in Sequest as a fixed modification. Oxidation of methionine and phospho of serine, threonine and tyrosine were specified in Sequest as variable modifications.

[1] = biological target: T1, alpha-synuclein plaque particles (Homo sapiens, UniProt P37840)
T1 construct: 140 amino acids polypeptide
Description: To prepare oligomers/aggregates of human alpha-synuclein (140 amino acids polypeptide), 1 mg of the recombinant alpha-synuclein protein was suspended in 1 mL of PBS and the sample was incubated at 37° C. for 2 hrs. After incubation, all the samples were centrifuged for 5 min. at 5000 rpm to remove precipitate, if any, and the supernatant containing oligomers/aggregates were used in vitro plaque particles formation assay. For detecting alpha-synuclein plaque particles Thioflavin S (Ex/Em=430 nm/550 nm) amyloid binding fluorescent dye (10 μg) was used.
Similarly, to isolate alpha-synuclein plaque particles, diluted plasma or serum samples obtained from AD subjects were used for incubation with alpha-synuclein plaque oligomers/aggregates. Each assay was performed in 1 mL reaction (800 μL of 50% plasma or serum) and 200 μL (30 μg) of the alpha-synuclein aggregates and the mixtures were incubated at 37° C. for 1 hr. To the mixture Thioflavin S dye (120 μg) was added and the sample was incubated for additional 30 min at 37° C. After the incubation, the mixture was directly used for sample acquisition using flow cytometer (FACS ARIA II, BD Biosciences, San Jose, Calif.). After initial detection of alpha-synuclein plaque particles, gates were drawn in the acquisition blot to separately sort and isolate fluorescently labeled alpha-synuclein particles.
as §1, §2
Scaffold (version Scaffold_4.2.1, Proteome Software Inc., Portland, Oreg.) was used to validate MS/MS based peptide and protein identifications.

[2] = biological target: T2, Abeta-42 plaque particles (Homo sapiens, UniProt P05067)
T2 construct: Abeta 1-42
Description: Next to isolate serum derived Abeta-42 plaque particles, the plasma or serum samples obtained from AD subjects were first centrifuged at 5,000 rpm for 5 min and the supernatants were transferred to new centrifuge tubes. Next, the supernatants were diluted in PBS to make 50% of the serum and plasma samples and used for incubation with Abeta-42 plaque oligomers/aggregates. Each assay was performed in 1 mL reaction (800 μL of 50% plasma or serum) and 200 μL (30 μg) of the Abeta-42 aggregates and the mixtures were incubated at 37° C. for 1 hr. To the mixture Thioflavin S dye (120 μg) was added and the sample was incubated for additional 30 min at 37° C. After the incubation, the mixture was directly used for sample acquisition using flow cytometer (FACS ARIA II, BD Biosciences, San Jose, Calif.). After initial detection of Abeta-42 plaque particles in the acquisition blot, gates were drawn in fluorescent dot blot to separately sort and isolate fluorescently labeled Abeta-42 particles.
as §1, §2
Scaffold (version Scaffold_4.2.1, Proteome Software Inc., Portland, Oreg.) was used to validate MS/MS based peptide and protein identifications. […] Protein probabilities were assigned by the Protein Prophet algorithm (Nesvizhskii, Al et al 2003). […] Proteins sharing significant peptide evidence were grouped into clusters. Proteins were annotated with GO terms from NCBI (downloaded Jan. 17, 2014).

[3] = test system: High Density cholesterol (Chl Large) plaque particles; parameters: species or system human
Description: (§3) The goal was to isolate plaque particles synthesized in the bio-fluids in a relatively pure form to enable their subsequent use for identification of components that contribute to the plaque formation. In order to isolate cholesterol plaque particles, the plasma or serum samples obtained from atherosclerotic subjects were first centrifuged at 5,000 rpm for 5 min and the supernatants were transferred to new centrifuge tubes. Next, the supernatants were diluted in PBS to make 50% of the serum and used for incubation with cholesterol oligomers/aggregates. Each assay was performed in 1 mL reaction (800 μL of 50% plasma or serum) and 200 μL (30 μg) of the Cholesterol aggregates and the mixtures were incubated at 37° C. for 1 hr After the incubation, the mixture was directly used for sample acquisition using flow cytometer (FACS ARIA II, BD Biosciences, San Jose, Calif.). […] In order to isolate these fractions, three sets of gates were drawn in the acquisition blot to separately sort and isolate High density or high complex cholesterol particles, Low density or low complex cholesterol particles and both High and low density cholesterol particles together.
as §1, §2
(§4) Scaffold (version Scaffold_4.2.1, Proteome Software Inc., Portland, Oreg.) was used to validate MS/MS based peptide and protein identifications. […] Protein probabilities were assigned by the Protein Prophet algorithm (Nesvizhskii, Al et al 2003).

[4] = test system: Low density cholesterol (Chl small) plaque particles; parameters: species or system human
Description: as §3, §1, §2, §4

Substance	Semi-quantitative analysis of proteins binding to different plaque particles: Tau (Tau plaque particles)	Semi-quantitative analysis of proteins binding to different plaque particles: Synuclein [1]	Semi-quantitative analysis of proteins binding to different plaque particles: Abeta-42 [2]	Semi-quantitative analysis of proteins binding to different plaque particles: Chl Large [3]	Semi-quantitative analysis of proteins binding to different plaque particles: Chl small [4]
Ig kappa chain V-I region Mev	0	0	0	1	1
Apolipoprotein C-III	5	1	4	4	4
Transthyretin	13	23	14	25	21
Cluster of Ig kappa chain V-I region HK102	1	1	5	1	1
Apolipoprotein A-II	10	7	5	8	6
Alpha-1B-glycoprotein	6	11	4	7	7
Coagulation factor XII	1	1	0	0	0
Cluster of Desmoplakin	0	0	12	0	0
Ig lambda chain V-IV region Hil	1	0	0	0	1
Cathepsin D	0	0	5	0	0
Apolipoprotein A-I	14	18	19	21	21
Isoform 2 of Clusterin	5	7	4	6	4
Cluster of Platelet factor 4	1	1	2	1	0
Cluster of Alpha-2-macroglobulin	45	44	32	43	43
